One may read the IC50 as the concentration needed to halve the response being measured. Read a low IC50 as greater potency in that assay. The term solubility denotes how much of the substance goes into solution per volume. A low value points to little dissolved substance.

The nature of data set [1]: PK study of dose proportionality in rat after oral SDD. In kind it is in vivo, female Sprague Dawley rats. Conditions: 25% Compound 1:HPMC SDD, oral 0.5% MC suspension, 10 mg/kg to 300 mg/kg. The method, then:
(§1) The spray-dried dispersion was prepared by mixing a solution of Compound 1 in dichloromethane with hydroxypropyl methylcellulose (Methocel E5 LV) (HPMC) in a 1:3 Compound 1:polymer ratio, stirring the mixture overnight, and then spray-drying using a lab scale Buchi spray dryer.

Data set [2] relates to Raji, human Burkitts lymphoma cells. As to the kind of experiment: Cell-MTS cellular proliferation assay, Raji. The following applies: 168 hr incubation. In kind it is cell-based. The method, then: (§2) A colorimetric cellular proliferation assay (Cell-MTS assay) was performed to assess the ability of the heterocyclic derivative BRD4 inhibitors disclosed herein to effect the proliferation of established cancer cell lines.
(§3) Assay Principle: The Cell-MTS assay is a 7-day plate-based colorimetric assay that quantifies the amount of newly generated NADH in the presence or absence of test compound. The NADH level is used for the quantification of cancer cell proliferation.
(§4) Assay Method: Established cancer cell lines with a variety of driving mutations were obtained from American Type Culture Collection (ATCC) and routinely passaged according to ATCC protocols. For routine assay, these cells were seeded at densities that enabled ˜90% confluence after 7 days of culture. Raji, human Burkitts lymphoma cells, (cMYC) were seeded at 15,000 cells per 96-well. HL-60, human proleukemia cells, (NRAS, p16, p53, c-Myc amplified) were seeded at 5,000 cells per 96-well. NCI-H460, human non-small cell lung cancer cells, (KRAS, PIK3CA, STLK11, p16) were seeded at 3,000 cells per 96-well. Plated cells were incubated for 24 hr, and thereafter cells received an 11-point dilution of Compound 1 with final concentration ranges from 100 μM to 2.0 nM. […] IC50 values were calculated using the IDBS XLfit software package and include background subtracted OD490 values and normalization to DMSO controls. […]
(Formazan colour is commonly taken as a measure of viable cells.)

A short description of data set [3]: PK study of plasma exposure in rat after oral HPMCAS SDD preparations. The class given is in vivo, female Sprague Dawley rats. Conditions: female, Sprague Dawley, 10 mg/kg. The method, then: Spray-dried dispersions (SDD) were prepared by mixing a solution of Compound 1 in (90:10) acetone:water with hydroxypropylmethylcellulose acetate succinate M or H (HPMCAS-M or HPMCAS-H) in ratios of Compound 1:polymer of either 1:9 or 1:3, followed by spray-drying each preparation using a custom bench scale Lab Spray Dryer (BLD-35; process parameters: inlet T° 93-109° C.; outlet T° 42-43° C.; atomizing pressure 110 psi; feed rate 29 g/min; […] 450 g/min).
In order to determine the plasma exposure levels of the three SDDs prepared as described above, each of them was administered orally at 10 mg/kg (based on Compound 1) to female Sprague Dawley rats as a suspension in 0.5% MC for the 10% HPMCAS-M SDD or as a suspension in 0.5% Methocel A4M/0.5% HPMCAS-HF/20 mM Tris, pH 7.4 for the 25% HPMCAS-M and the 25% HPMCAS-H SDDs. FIG. 9 illustrates the results of this experiment.

A further data set has as its target T1, BRD4(BD1) (Homo sapiens, UniProt O60885).
T1 construct: In a 384-well ProxiPlate BRD4(BD1) (2 nM final) was combined with peptide; made in house
Description: In vitro enzyme inhibition assay (AlphaScreen, BRD4 / H4-tetraacetyl peptide). The class given is binding. Conditions: BRD4(BD1) 2 nM, peptide 15 nM. The procedure: His-tagged BRD4 was cloned, expressed, and purified to homogeneity. […] BRD4 binding and inhibition was assessed by monitoring the interaction of biotinylated H4-tetraacetyl peptide (AnaSpec, H4K5/8/12/16(Ac), biotin-labeled) with the target using the AlphaScreen technology ([…]). […] After 20 min incubation at RT, Alpha streptavidin donor beads and Nickel Chelate acceptor beads were added to a final concentration of 5 μg/mL.
For orientation: Bead proximity is the source of the signal in Alpha formats.

Data set [4] concerns NCI-H460, human non-small cell lung cancer cells. Description: Cell-MTS cellular proliferation assay, NCI-H460. The class given is cell-based. The following applies: 168 hr incubation. The method, then: as §2, §3, §4
Data set [5] can be described thus: PK study of dose proportionality in dog after oral SDD. The class given is in vivo, male beagle dogs. The following applies: 25% Compound 1:HPMC SDD, oral 0.5% MC suspension, 1 mg/kg-10 mg/kg. The method, then:
as §1

Data set [6] has as its system HL-60, human proleukemia cells. Description: Cell-MTS cellular proliferation assay, HL-60. The class given is cell-based. Conditions: 168 hr incubation. The procedure:
as §2, §3, §4

The nature of data set [7]: PK study of plasma exposure in mouse 6 hours after oral SDD preparations. In kind it is in vivo, female CD-1 mice. Conditions: female, CD-1, mouse. The procedure: Spray-dried dispersions (SDD) were prepared by mixing a solution of Compound 1 in dichloromethane with either polyvinylpyrrolidone (PVP K12 PF) or hydroxypropyl methylcellulose (Methocel E5 LV) in ratios of Compound 1:polymer of either 1:1 or 1:3, resulting in four unique combinations, followed by spray-drying each preparation using a lab scale Buchi spray dryer (Buchi B290 parameters: inlet T° 80° C.; outlet T° 57° C.; aspirator 100%; nozzle air 30 mm; pump speed 25%; setup: open loop).
In order to determine the plasma exposure levels of the four SDDs prepared as described above, each of preparation was administered orally to female CD-1 mice as a suspension in 0.5% MC. FIG. 6 illustrates the results of this experiment.

Data set [8] in a line: Aqueous solubility, kinetic shake flask method. In kind it is physicochemical. Conditions: aqueous buffer, kinetic from dmso stock, pH=7.4 in 50 mM phosphate buffer.
Data set [9] can be described thus: PK study of dose proportionality in rat after oral crystalline Form A. Conditions: oral 10, 30, 100 or 300 mg/kg, suspension in 1% Tween, 40% PEG400, 59% of 0.5% HPMC. The class given is in vivo, female Sprague Dawley rats. The text has this: A summary of this study is illustrated in FIG. 5.

The structures appear in SMILES notation. ≈ marks a conversion by molar mass, not a printed value.

Regarding `Cn1cc(-c2cc(S(C)(=O)=O)ccc2OCC2CC2)c2ccccc2c1=O` [Compound 1, 4-[2-(cyclopropylmethoxy)-5-methylsulfonylphenyl]-2-methylisoquinolin-1-one], the “dose proportionality (AUC 0-24 hr)” value in data set [1] is listed as “approximate dose proportionality”; in [5] it was “Approximate dose proportionality”. In addition, the half-maximal inhibitory concentration (IC50) in data set [2] is ≤ 500 nM; at BRD4(BD1), < 500 nM; in data set [4], > 5 µM; in [6], ≤ 500 nM. Further, the AUC(0-t) in [3] (SDD with HPMCAS-M polymer, Compound 1:polymer 1:9, suspension in 0.5% MC, read-out: mean AUC 0-24 hr) was 28100 ng·h/mL; in [3] (pH 7.4, SDD with HPMCAS-H polymer, Compound 1:polymer 1:3, suspension in 0.5% Methocel A4M/0.5% HPMCAS-HF/20 mM Tris, pH 7.4, read-out: mean AUC 0-24 hr), 27500 ng·h/mL; in [3] (pH 7.4, SDD with HPMCAS-M polymer, Compound 1:polymer 1:3, suspension in 0.5% Methocel A4M/0.5% HPMCAS-HF/20 mM Tris, pH 7.4, read-out: mean AUC 0-24 hr), 24600 ng·h/mL; in data set [7] (SDD with HPMC polymer, Compound 1:polymer 1:1, suspension in 0.5% MC), 10500 ng·h/mL; in [7] (SDD with HPMC polymer, Compound 1:polymer 1:3, suspension in 0.5% MC), 24400 ng·h/mL; in data set [7] (SDD with PVP polymer, Compound 1:polymer 1:1, suspension in 0.5% MC) it was 7190 ng·h/mL. Further, in data set [7] (SDD with PVP polymer, Compound 1:polymer 1:3, suspension in 0.5% MC), the AUC(0-t) was found to be 8870 ng·h/mL.
`Cn1cc(-c2cc(S(C)(=O)=O)ccc2OCC2CC2)c2ccccc2c1=O` [Compound 1 Form A, 4-[2-(cyclopropylmethoxy)-5-methylsulfonylphenyl]-2-methylisoquinolin-1-one] gave a solubility in data set [8] of 2.6 to 3.7 µg/mL (≈ 6.78 to 9.65 µM). Besides, in data set [9], the “exposure levels (AUC 0-24 hr) versus dose” value is on record as “non-linear exposure levels”.

For the origin of these results see patent publication US11679106B2, “Bromodomain inhibitor” (CELGENE QUANTICEL RESEARCH, INC., priority 2015, dated 2023).
